Measured values published in patent publication US20050009151A1, “Methods for the stereospecific and enantiomeric enrichment of beta-amino acids” (Pharmacia Corporation, priority 2003, published 2005).

Experiments:
[1] = test system: β-aminotransferase from Alcaligenes eutrophus; assay: Synthesis of β-amino acid from β-keto acid with cell lysate from Alcaligenes eutrophus; type: biochemical; conditions: approximately 45 mM substrate, approximately 84 mM alanine, 47 hours
Protocol: A buffer consisting of 0.3M Tricine, 15 mM MgSO4, enough pyridoxal phosphate to impart a pale yellow color and 0.3M sodium glutamate (for deamination reactions) or 0.3 M 2-ketoglutarate monopotassium salt (for synthesis reactions) was prepared.
[…] Reactions were typically run at 1 ml scale with gentle shaking at 26° C.
10 ul of 2N HCl was added to a plastic screw capped vial and 90ul of sample was then added. The pH of the mixture confirmed to be below 4 and the mixture was centrifuged in a microcentrifuge at maximum speed for about 2 minutes to remove precipitated materials.
Samples were derivatized using Marfey's reagent, N•-(2,4-dinitro-5-fluorophenyl)-L-alaninamide. A stock solution of 10 mg/mL in acetone of this reagent was prepared. Either 20 or 40 ul of bioconversion sample was added to 20 ul 1.3 M KHCO3. To this was added 80 ul of the stock reagent solution, the vial sealed tightly, and heated at 70° C. for 10 minutes. As needed, after cooling to room temperature, the heated samples were centrifuged to remove solids. The supernatants were analyzed using an Eclipse XDB-C8 column, 4.6×150 mm, eluting with methanol gradient in water, from 50% methanol to 100% methanol. Both solvents were acidified with 0.1% trifluoroacetic acid. […]

[2] = test system: Alcaligenes eutrophus L-β-aminotransferase; assay: Amino donor screen, production of β-phenylalanine from 3-keto-3-phenylpropionic acid; type: biochemical; conditions: 200 mM amino donor, pyruvate decarboxylase, 24 hours
Protocol: The assays contained: 0.1-0.3 mg/ml protein, 10 mg/ml keto acceptor, 200 mM amino donor, 0.1 mM pyridoxal phosphate, and 100 mM potassium phosphate, at pH 8.0. 0.1 units of pyruvate decarboxylase was included to prevent the reversible reaction from reaching equilibrium. The reactions were run at 37° C. with gentle stirring for 24 hours. At 24 hours reaction time, 0.1 ml samples were withdrawn, acidified with addition of 0.1 ml 0.1N HCl, and centrifuged. The supernatant solution was collected into HPLC sample vials. Conversion of amino acid to the corresponding ketone was quantified using reverse phase HPLC. Amino donors screened were (L)-alanine, (D)-alanine, and β-alanine.

[3] = test system: α-alanine aminotransferase; conditions: J. Biochem 81, 1375-1381, 1977; cited from earlier work
[4] = test system: gamma aminobutyrate transaminase; conditions: J. Biochem 81, 1375-1381, 1977; cited from earlier work

| Structure (SMILES) | 2-fluoro-beta-phenylalanine formed, using beta-phenylalanine as standard [1] | utilized by the enzyme as an amino donor in the production of β-phenylalanine [2] | activity on substrate [3] | activity on substrate [4] |
| --- | --- | --- | --- | --- |
| O=C(O)CC(=O)c1ccccc1F [3-(2-Fluorobenzene)beta-oxopropanoic acid] | approximately 0.1 mg/mL |  |  |  |
| C[C@@H](N)C(=O)O [(D)-alanine] |  | Only (L)-alanine was utilized by the enzyme |  |  |
| C[C@H](N)C(=O)O [(L)-alanine] |  | utilized by the enzyme as an amino donor |  |  |
| NCCCC(=O)O [gamma aminobutyrate] |  |  | 43 | 100 |
| NCCC(=O)O [β-alanine] |  | Only (L)-alanine was utilized by the enzyme | 100 | 3 |
